The text below walks through data of EP3974434B1, “MACROLIDE DERIVATIVES, PREPARATION METHOD AND APPLICATION THEREOF” (Zhejiang Hisun Pharmaceutical Co., Ltd., priority 2019, dated 2020).

One assay has as its target T1, TRKC(G623R) (Homo sapiens, UniProt Q16288, G623R).
T1 construct: purchased SignalChem N18-12CH-10
The assay can be described thus: HTRF KinEASE-TK kinase activity inhibition assay, TRKC(G623R). It counts as biochemical. As to conditions: ATP 100 µM. From the text: (§1) The following method was used to determine the inhibition degrees of the compounds of the present invention on the activity of recombinant human NTRK family kinase in vitro. In this method, HTRF®KinEASE-TK tyrosine kinase kit (article number: 62TK0PEB) of Cisbio company was used, and the principle of the kit was based on time-resolved fluorescence resonance energy transfer (TF-FRET), and the inhibition of the compounds on the activity of the NTRK kinase was reflected by determining a phosphorylation degree of a biotinylated polypeptide substrate mediated by NTRK kinase. For detailed experimental operation, please refer to the kit instruction. Recombinant human wild-type NTRK proteins were purchased from Carna bioscience (the article numbers were TRKA #08-186, TRKB #08-187 and TRKC #08-197 respectively), and recombinant human mutant NTRK proteins were purchased from SignalChem (the article numbers were TRKA G595R #N16-12BG-10, TRKA G667C # N16-12CG-10, and TRKC G623R # N18-12CH-10 respectively).
The experimental methods were operated according to the steps in the kit instruction, and were briefly described as follows: a test compound was first dissolved in DMSO to prepare a storage solution, and then diluted in gradient with a buffer provided in the kit. A final concentration of the test compound in the reaction system ranged from 1,000 nM to 0.004 nM. An ATP Km value concentration of each NTRK protein was determined by using an ATP solution diluted in gradient (Sangon Biotech (Shanghai) Co., Ltd., A600311). According to the Km value obtained, the ATP concentrations in the reaction system were set as 100 µM for TRKA, 10 µM for TRKB, 50 µM for TRKC, 7 µM for TRKA(G595R), 1 µM for TRKA(G667C) and 100 µM for TRKC(G623R). The reaction was carried out in a 384-well microplate. Firstly, the compound and a certain amount of corresponding NTRK protein were added to the wells and incubated for 5 minutes to 10 minutes at room temperature. Then, the ATP solution and the biotinylated polypeptide substrate solution were added to the reaction solution and incubated with shaking at room temperature for 60 minutes. […] After incubation, fluorescence intensity values of each well at an excitation wavelength of 304 nm, and emission wavelengths of 620 nm and 665 nM were determined in a TF-FRET mode on a microplate reader. Compared with the fluorescence intensity ratio of a control group (0.1% DMSO), the percentage inhibition rates of the compound at each concentration were calculated, and the IC50 value of the compound was obtained by performing nonlinear regression analysis for logarithmic value of the compound concentration - inhibition rate by GraphPad Prism 5 software, which can be seen in Table 1. […]

Another assay addresses T2, TRKA(G667C) (Homo sapiens, UniProt P04629, G667C).
T2 construct: purchased SignalChem N16-12CG-10
The assay can be described thus: HTRF KinEASE-TK kinase activity inhibition assay, TRKA(G667C). The note with it: ATP 1 µM. It counts as biochemical.
Source text: as §1
The experimental methods were operated according to the steps in the kit instruction, and were briefly described as follows: a test compound was first dissolved in DMSO to prepare a storage solution, and then diluted in gradient with a buffer provided in the kit. A final concentration of the test compound in the reaction system ranged from 1,000 nM to 0.004 nM. An ATP Km value concentration of each NTRK protein was determined by using an ATP solution diluted in gradient (Sangon Biotech (Shanghai) Co., Ltd., A600311). According to the Km value obtained, the ATP concentrations in the reaction system were set as 100 µM for TRKA, 10 µM for TRKB, 50 µM for TRKC, 7 µM for TRKA(G595R), 1 µM for TRKA(G667C) and 100 µM for TRKC(G623R). The reaction was carried out in a 384-well microplate. Firstly, the compound and a certain amount of corresponding NTRK protein were added to the wells and incubated for 5 minutes to 10 minutes at room temperature. Then, the ATP solution and the biotinylated polypeptide substrate solution were added to the reaction solution and incubated with shaking at room temperature for 60 minutes. Then, an anti-phosphorylated tyrosine antibody coupled with a europium compound and streptavidin coupled with modified allophycocyanin XL665 were added to the reaction, and continuously incubated with shaking at room temperature for 1 hour. After incubation, fluorescence intensity values of each well at an excitation wavelength of 304 nm, and emission wavelengths of 620 nm and 665 nM were determined in a TF-FRET mode on a microplate reader. Compared with the fluorescence intensity ratio of a control group (0.1% DMSO), the percentage inhibition rates of the compound at each concentration were calculated, and the IC50 value of the compound was obtained by performing nonlinear regression analysis for logarithmic value of the compound concentration - inhibition rate by GraphPad Prism 5 software, which can be seen in Table 1. Table 1 IC50 data of the compounds of the present invention on TRK enzyme activity inhibition
For orientation: Time-resolved FRET reads energy transfer from a long-lived donor to a nearby acceptor.

T1 sequence (Q16288 32-839 G623R): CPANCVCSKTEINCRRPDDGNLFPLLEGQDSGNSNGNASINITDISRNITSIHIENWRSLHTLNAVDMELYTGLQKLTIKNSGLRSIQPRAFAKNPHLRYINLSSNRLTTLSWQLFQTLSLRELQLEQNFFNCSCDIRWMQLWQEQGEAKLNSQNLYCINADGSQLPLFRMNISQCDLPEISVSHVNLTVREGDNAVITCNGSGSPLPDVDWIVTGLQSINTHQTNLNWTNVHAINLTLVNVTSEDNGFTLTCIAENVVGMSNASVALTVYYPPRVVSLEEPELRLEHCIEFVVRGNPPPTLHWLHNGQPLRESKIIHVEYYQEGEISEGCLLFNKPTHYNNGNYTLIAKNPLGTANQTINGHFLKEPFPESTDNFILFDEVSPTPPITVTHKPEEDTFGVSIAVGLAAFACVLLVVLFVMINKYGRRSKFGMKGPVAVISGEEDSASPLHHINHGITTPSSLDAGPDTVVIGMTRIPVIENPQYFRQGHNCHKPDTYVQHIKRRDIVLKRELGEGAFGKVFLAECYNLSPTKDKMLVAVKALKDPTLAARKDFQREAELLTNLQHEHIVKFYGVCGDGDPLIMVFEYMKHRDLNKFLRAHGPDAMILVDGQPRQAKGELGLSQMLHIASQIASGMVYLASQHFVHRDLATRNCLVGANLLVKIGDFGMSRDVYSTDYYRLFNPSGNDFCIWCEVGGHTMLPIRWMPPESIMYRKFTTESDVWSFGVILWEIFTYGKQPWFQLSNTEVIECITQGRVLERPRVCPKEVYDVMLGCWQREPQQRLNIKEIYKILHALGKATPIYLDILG
T2 sequence (P04629 33-796 G667C): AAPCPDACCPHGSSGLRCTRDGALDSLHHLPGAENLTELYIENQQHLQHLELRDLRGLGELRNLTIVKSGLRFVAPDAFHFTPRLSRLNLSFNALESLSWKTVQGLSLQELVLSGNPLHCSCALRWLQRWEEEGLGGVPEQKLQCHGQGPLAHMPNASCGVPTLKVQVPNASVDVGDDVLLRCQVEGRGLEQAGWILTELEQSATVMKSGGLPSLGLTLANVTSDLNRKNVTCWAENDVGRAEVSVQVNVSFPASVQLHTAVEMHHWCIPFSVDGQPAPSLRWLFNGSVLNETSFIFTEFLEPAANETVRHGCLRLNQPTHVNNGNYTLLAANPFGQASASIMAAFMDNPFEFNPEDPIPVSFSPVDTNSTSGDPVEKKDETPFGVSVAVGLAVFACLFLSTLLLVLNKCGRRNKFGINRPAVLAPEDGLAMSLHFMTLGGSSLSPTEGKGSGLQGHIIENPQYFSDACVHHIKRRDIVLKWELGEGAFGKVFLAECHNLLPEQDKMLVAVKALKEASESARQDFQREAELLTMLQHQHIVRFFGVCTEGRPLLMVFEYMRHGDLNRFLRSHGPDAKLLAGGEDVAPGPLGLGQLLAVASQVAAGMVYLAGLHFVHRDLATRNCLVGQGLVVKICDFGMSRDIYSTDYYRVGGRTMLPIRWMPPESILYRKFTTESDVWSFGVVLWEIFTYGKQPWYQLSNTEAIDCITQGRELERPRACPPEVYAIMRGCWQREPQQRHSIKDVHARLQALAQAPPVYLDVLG

What is called IC50 is the midpoint of a concentration-inhibition curve. The low end stands for inhibition by little substance, the high end for a need for much substance. With `C[C@H]1Nc2ccn3ncc(c3n2)C(=O)NC[C@@]2(C)Cc3cc(F)cc1c3O2` [Example 8, (3R,11R)-6-fluoro-3,11-dimethyl-10-oxa-2,13,17,1 8,21-pentaazapentacyclo[13.5.2.1^8,11.0^4,9.0^18,22]tric osa-1(21),4,6,8,15(22),16,19-heptaen-14-one], the IC50 against TRKC(G623R) was 13.5 nM. In turn, `C[C@H]1Nc2ccn3nc(N)c(c3n2)C(=O)NC[C@@]2(C)Cc3cc(F)cc1c3O2` [Example 25, (3R,11R)-16-amino-6-fluoro-3,11-dimethyl-10-oxa-2,13,17,18,21-pentaazapentacyclo[13.5.2.1^8,11.0^4,9. 0^18,22]tricosa-1(21),4,6,8,15(22),16,19-heptaen-14-one] returned a 50% inhibitory concentration (IC50) at TRKA(G667C) of 9.5 nM.
